According to patent US8975400B2, “2,3-dihydroimidazo[1, 2-c] pyrimidin-5(1 H)-one compounds use as LP-PLA2 inhibitors” (Glaxo Group Limited, priority 2011, dated 2015):
Counter-ions that a name gives are not always drawn.

Assays:
[1] = target: T1, recombinant human Lp-PLA2 (Homo sapiens, UniProt Q13093); experiment: Recombinant human Lp-PLA2 assay (rhLp-PLA2, PED6 assay); format: biochemical; conditions: recombinant human Lp-PLA2, PED6 substrate; upper limit for pIC50 in this assay is 9.3
T1 sequence (Q13093 22-441): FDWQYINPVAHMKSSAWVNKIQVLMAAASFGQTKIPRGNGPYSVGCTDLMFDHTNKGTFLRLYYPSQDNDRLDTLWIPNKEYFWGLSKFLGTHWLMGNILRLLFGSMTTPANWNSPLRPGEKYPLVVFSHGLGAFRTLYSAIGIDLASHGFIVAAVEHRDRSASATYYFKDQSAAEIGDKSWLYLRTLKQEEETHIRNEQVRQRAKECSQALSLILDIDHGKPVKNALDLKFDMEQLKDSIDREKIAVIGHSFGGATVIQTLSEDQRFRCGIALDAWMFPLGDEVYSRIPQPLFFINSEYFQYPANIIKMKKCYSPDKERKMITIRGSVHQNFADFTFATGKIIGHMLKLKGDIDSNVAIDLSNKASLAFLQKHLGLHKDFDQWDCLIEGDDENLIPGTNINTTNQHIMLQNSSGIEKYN
Description: (1) Recombinant Human Lp-PLA2 Assay (rhLp-PLA2) (Also Referred to as “PED6” Assay)
N-((6-(2,4-dinitrophenyl)amino)-hexanoyl)-2-(4,4-difluoro-5,7-dimethyl-4-bora-3a,4a-diaza-s-indacene-3-pentanoyl)-1-hexadecanoyl-sn-glycero-3-phosphoethanolamine, triethylammonium salt (PED6) is a commercially available fluorescently-labeled phospholipid, which is commercially available from Invitrogene and Molecular Probes. There is a quenching […] and a Bodipy fluorescein (FL) group in the sn2 position. Upon cleavage with Lp-PLA2, the Bodipy FL group is liberated and then may result in an increase in fluorescence. Inhibitors of Lp-PLA2 therefore prevent this cleavage and no fluorescent increase is observed.
The PED6 assay was run as an unquenched 10 μL assay. The source plate containing the compounds to be tested was prepared by making 1:3 (by volume) serial dilution of the compounds within DMSO on 384-well microplate. Then, 0.01 μL of the compounds on compound source plate were transferred into 384 well Greiner 784076 (black) plates using ECHO liquid dispenser. 5 µL of recombinant human Lp-PLA2 enzyme (4 nM (or 110 pM) rhLp-PLA2 in assay buffer of 50 mM HEPES, pH 7.4, 150 mM NaCl, 1 mM CHAPS) was added to each well of the plate. Plates were centrifuged for 10 sec at 500 rpm. After 30 minutes preincubation, 5 µL of substrate (4 μM (or 5 μM) PED6 [from 5 mM DMSO stock] in assay buffer of 50 mM HEPES, pH 7.4, 150 mM NaCl, 1 mM CHAPS) was added to 384 well Greiner 784076 (black) plates. Plates were centrifuged for 10 sec at 500 rpm. The plate was covered to protect it from light and incubated for 20 min at room temperature. The plates were read for fluorescence intensity at ex: 480/em: 540 using ViewLux microplate imager for Envision spectrofluroimeters pIC50 data, curve and QC analysis was conducted by using XL fit module in Excel.
The compounds described below were tested generally according to the PED6 assay described above.

[2] = target: T2, Lp-PLA2 in human plasma (Homo sapiens, UniProt Q13093); experiment: Lp-PLA2 human plasma assay (Thio-PAF assay); format: biochemical; conditions: pooled human plasma, 2-thio-PAF substrate; read-out: pIC50 in the thio-PAF assay (converted)
T2 construct: This assay may detect the activity of Lp-PLA2 in human plasma; from tissue; host or cells: pooled human plasma
T2 sequence (Q13093 22-441): T1 sequence (Q13093 22-441)
Description: (3) Lipoprotein-Associated Phospholipase A2 (Lp-PLA2) Human Plasma Assay (Also Referred to as “Thio-PAF Assay”)
The human plasma assay utilizes a thioester analog of PAF (phosphatidylcholine), where hydrolysis yields to the formation of a phospholipid containing a free thiol group. The amount of thiol is quantitated continuously by reacting with CPM (7-diethylamino-3-(4′-maleimidylphenyl)-4-methylcoumarin), a maleimide which increases in fluoresence after Michael addition of thiols. This assay may detect the activity of Lp-PLA2 in human plasma, as determined by specific inhibition by Lp-PLA2 inhibitors.
The thio-PAF assay was run as a quenched 15 μL assay. Compounds source plate was prepared by making 1:3 (by volume) serial dilution of the compounds into pure DMSO on 384-well microplate. 0.01 μL of compounds on compound source plate were transferred to 384 well Greiner 784076 (black) low-volume plates by ECHO liquid dispenser. 8 μL pooled human plasma, which was previously aliquoted and frozen, was added. Plates were centrifuged for 10 sec at 500 rpm. After 30 minutes preincubation, 2 μL of substrate solution comprising 2.5 mM 2-thio-PAF [from ethanol stock], 32 μM CPM [from a DMSO stock] and 3.2 mM NEM (N-ethylmaleimide) [made fresh daily in DMSO] in assay buffer of 50 mM HEPES, pH 7.4, 150 mM NaCl, 1 mM CHAPS was added to 384 well Greiner 784076 (black) low-volume plates by BRAVO liquid handling station. After 2 mins, reaction was quenched with 5 μL of 5% aqueous trifluoroacetic acid (TFA). Plates were covered to protect from light and incubated for 40 min at room temperature. Plates were read at ex: 380/em: 485 using-Envision microplate reader. pIC50 data, curve and QC analysis was conducted by using XLFit module in Excel.

CN1CCn2c1cc(OCc1ccc(Oc3ccnc(C(F)(F)F)c3)cc1)nc2=O [Example 123, 1-methyl-7-((4-((2-(trifluoromethyl)pyridin-4-yl)oxy)benzyl)oxy)-2,3-dihydroimid-azo[1,2-c]pyrimidin-5(1H)-one]
IC50 [1]: ≤ 10 nM | IC50 [2]: ≤ 1000 nM

CN1CCn2c1cc(OCc1ccc(Oc3ccc(C(F)(F)F)nc3)c(C#N)c1)nc2=O [Example E49, 5-(((1-methyl-5-oxo-1,2,3,5-tetrahydroimidazo[1,2-c]pyrimidin-7-yl)oxy)methyl)-2-((6-(trifluoromethyl)pyridin-3-yl)oxy)benzonitrile]
IC50 [1]: ≤ 10 nM | IC50 [2]: ≤ 100 nM

CN1CCn2c1cc(OCc1ccc(Oc3ccc(Cl)c(F)c3)cc1)nc2=O [Example E25, 7-((4-(4-chloro-3-fluorophenoxy)benzyl)oxy)-1-methyl-2,3-dihydroimidazo[1,2-c]pyrimidin-5(1H)-one]
IC50 [1]: ≤ 10 nM | IC50 [2]: ≤ 1000 nM

N#Cc1cc(COc2cc3n(c(=O)n2)CCN3)ccc1Oc1ccc(C#N)c(C(F)(F)F)c1 [Example 88, 4-(2-cyano-4-(((5-oxo-1,2,3,5-tetrahydroimidazo[1,2-c]pyrimidin-7-yl)oxy)methyl)p-henolxy)-2-(trifluoromethyl)benzonitrile]
IC50 [1]: 2 nM | IC50 [2]: ≤ 100 nM

CN1CCn2c1cc(OCc1ccc(Oc3cc(F)c(F)c(F)c3)c(F)c1)nc2=O [Example E42, 7-((3-fluoro-4-(3,4,5-trifluorophenoxy)benzyl)oxy)-1-methyl-2,3-dihydroimi-dazo[1,2-c]pyrimidin-5(1H)-one]
IC50 [1]: ≤ 10 nM | IC50 [2]: ≤ 1000 nM

N#Cc1ccc(Oc2ccc(COc3cc4n(c(=O)n3)CCN4)cc2F)cc1C(F)(F)F [Example 118, 4-(2-fluoro-4-(((5-oxo-1,2,3,5-tetrahydroimidazo[1,2-c]pyrimidin-7-yl)oxy)methyl)p-hen-oxy)-2-(trifluoromethyl)benzonitrile]
IC50 [1]: 0.794 nM | IC50 [2]: ≤ 100 nM

CN1CCn2c1cc(OCc1ccc(Oc3ccc(Cl)c(C(F)(F)F)c3)cc1)nc2=O [Example E5, 7-((4-(4-chloro-3-(trifluoromethyl)phenoxy)benzyl)oxy)-1-methyl-2,3-dihydroimidazo[1,2-c]pyrimidin-5(1H)-one]
IC50 [1]: ≤ 10 nM | IC50 [2]: ≤ 100 nM

CN1CCn2c1cc(OCc1ccc(Oc3ccc(F)c(F)c3)c(C#N)c1)nc2=O [Example E34, 2-(3,4-difluorophenoxy)-5-(((1-methyl-5-oxo-1,2,3,5-tetrahydroimidazo[1,2-c]pyrimidin-7-yl)oxy)methyl)benzonitrile]
IC50 [1]: ≤ 10 nM | IC50 [2]: ≤ 100 nM

CN1CCn2c1cc(OCc1ccc(Oc3cc(F)cc(F)c3)c(C#N)c1)nc2=O [Example 111, 2-(3,5-difluorophenoxy)-5-(((1-methyl-5-oxo-1,2,3,5-tetrahydroimidazo[1,2-c]pyri-midin-7-yl)oxy)methyl)benzonitrile]
IC50 [1]: ≤ 10 nM | IC50 [2]: ≤ 1000 nM

CN1CCn2c1cc(OCc1ccc(Oc3ccc(F)c(C#N)c3)c(F)c1)nc2=O [Example 139, 2-fluoro-5-(2-fluoro-4-(((1-methyl-5-oxo-1,2,3,5-tetrahydroimidazo[1,2-c]pyrimidin-7-yl)oxy)methyl)phenoxy)benzonitrile]
IC50 [1]: ≤ 10 nM | IC50 [2]: ≤ 1000 nM

CN1CCn2c1cc(OCc1ccc(Oc3ccc(C#N)c(C(F)(F)F)c3)c(F)c1)nc2=O [Example E83, 4-(2-fluoro-4-(((1-methyl-5-oxo-1,2,3,5-tetrahydroimidazo[1,2-c]pyrimidin-7-yl)oxy)methyl)phenoxy)-2-(trifluoromethyl)benzonitrile, trifluoroacetic acid salt]
IC50 [1]: 0.631 nM | IC50 [2]: ≤ 100 nM

CN1CCn2c1cc(OCc1ccc(Oc3ccc(Cl)c(C(F)(F)F)c3)c(C#N)c1)nc2=O [Example 101, 2-(4-chloro-3-(trifluoromethyl)phenoxy)-5-(((1-methyl-5-oxo-1,2,3,5-tetrahydro-imidazo[1,2-c]pyrimidin-7-yl)oxy)methyl)benzonitrile, trifluoroacetic acid salt]
IC50 [1]: ≤ 1 nM | IC50 [2]: ≤ 100 nM

CN1CCn2c1cc(OCc1ccc(Oc3ccc(Cl)c(Cl)c3)c(F)c1)nc2=O [Example E41, 7-((4-(3,4-dichlorophenoxy)-3-fluorobenzyl)oxy)-1-methyl-2,3-dihydroimidazo[1,2-c]pyrimidin-5(1H)-one]
IC50 [1]: ≤ 10 nM | IC50 [2]: ≤ 1000 nM

CN1CCn2c1cc(OCc1cc(F)c(Oc3ccc(C(F)(F)F)nc3)c(F)c1)nc2=O [Example E2, 7-((3,5-difluoro-4-((6-(trifluoromethyl)pyridin-3-yl)oxy)benzyl)oxy)-1-methyl-2,3-dihydroimidazo[1,2-c]pyrimidin-5(1H)-one]
IC50 [1]: ≤ 10 nM | IC50 [2]: ≤ 1000 nM

CN1CCn2c1cc(OCc1cc(F)c(Oc3cccc(Cl)c3)c(F)c1)nc2=O [Example E82, 7-((4-(3-chlorophenoxy)-3,5-difluorobenzyl)oxy)1-methyl-2,3-dihydroimidazo[1,2-c]pyrimidin-5(1H)-one]
IC50 [1]: ≤ 1 nM | IC50 [2]: ≤ 1000 nM

CN1CCn2c1cc(OCc1ccc(Oc3cccc(C(F)(F)F)c3)c(C#N)c1)nc2=O [Example E1, 5-(((1-methyl-5-oxo-1,2,3,5-tetrahydroimidazo[1,2-c]pyrimidin-7-yl)oxy)methyl)-2-(3-(trifluoromethyl)phenoxy)benzonitrile]
IC50 [1]: ≤ 10 nM | IC50 [2]: ≤ 100 nM

N#Cc1cc(COc2cc3n(c(=O)n2)CCN3)ccc1Oc1ccnc(C(F)(F)F)c1 [Example 91, 5-(((5-oxo-1,2,3,5-tetrahydroimidazo[1,2-c]pyrimidin-7-yl)oxy)methyl)-2-((2-(trifluoromethyl)pyridin-4-yl)oxy)benzonitrile]
IC50 [1]: ≤ 10 nM | IC50 [2]: ≤ 100 nM

CN1CCn2c1cc(OCc1ccc(Oc3cccc(C(F)(F)F)c3)c(F)c1)nc2=O [Example E20, 7-((3-fluoro-4-(3-(trifluoromethyl)phenoxy)benzyl)oxy)-1-methy-2,3-dihydroimid-azo[1,2-c]pyrimidin-5(1H)-one]
IC50 [1]: ≤ 10 nM | IC50 [2]: ≤ 1000 nM

CN1CCn2c1cc(OCc1ccc(Oc3cncc(C(F)(F)F)c3)c(F)c1)nc2=O [Example 126, 7-((3-fluoro-4-((5-(trifluoromethyl)pyridin-3-yl)oxy)benzyl)oxy)-1-methyl-2,3-dihydroimidazo[1,2-c]pyrimidin-5(1H)-one]
IC50 [1]: ≤ 10 nM | IC50 [2]: ≤ 100 nM

CN1CCn2c1cc(OCc1ccc(Oc3cncc(Cl)c3)c(C#N)c1)nc2=O [Example 134, 2-((5-chloropyridin-3-yl)oxy)-5-(((1-methyl-5-oxo-1,2,3,5-tetrahydroimidazo[1,2-c]pyrimidin-7-yl)oxy)methyl)benzonitrile]
IC50 [1]: ≤ 10 nM | IC50 [2]: ≤ 100 nM
